Our source for the Kd values is patent US20020091262A1, “Substituted aryl or heteroarylamides having retinoid-like biological activity” (Allergan, priority 1995, published 2002).

One assay has as its target T1, RXRα (Homo sapiens, UniProt P19793).
T1 construct: made in house; used as extract protein
T1 sequence (P19793 1-462): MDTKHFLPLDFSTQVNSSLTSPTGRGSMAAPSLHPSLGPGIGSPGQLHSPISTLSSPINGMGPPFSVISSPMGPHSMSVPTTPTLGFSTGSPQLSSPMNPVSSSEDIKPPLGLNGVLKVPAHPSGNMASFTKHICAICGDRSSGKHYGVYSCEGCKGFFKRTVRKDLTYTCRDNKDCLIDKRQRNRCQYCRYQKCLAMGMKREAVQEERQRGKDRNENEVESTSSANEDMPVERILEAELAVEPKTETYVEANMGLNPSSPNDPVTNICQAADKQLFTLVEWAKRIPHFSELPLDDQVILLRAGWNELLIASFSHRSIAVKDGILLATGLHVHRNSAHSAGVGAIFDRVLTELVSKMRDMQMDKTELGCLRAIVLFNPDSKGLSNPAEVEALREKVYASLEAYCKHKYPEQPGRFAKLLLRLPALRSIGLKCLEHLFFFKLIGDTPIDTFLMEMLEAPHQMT
Description: Ligand binding assay, RXRα. The settings on record: receptor expressed in Baculovirus; Cheng-Prussof from IC50. The method, then:
(§1) A holoreceptor transactivation assay and a ligand binding assay which measure the ability of the compounds of the invention to bind to the several retinoid receptor subtypes, respectively, are described in published PCT Application No. WO W093/11755 (particularly on pages 30-33 and 37-41) published on Jun. 24, 1993, the specification of which is also incorporated herein by reference. A description of the ligand binding assay is also provided below.
(§2) All binding assays were performed in a similar fashion. All six receptor types were derived from the expressed receptor type (RAR α, β, Γ and RXR α, β, Γ) expressed in Baculovirus. Stock solutions of all compounds were prepared as 10 mM ethanol solutions and serial dilutions carried out into 1:1 DMSO; ethanol. Assay buffers consisted of the following for all six receptor assays: 8% glycerol, 120 mM KCl, 8 mM Tris, 5 mM CHAPS 4 mM DTT and 0.24 mM PMSF, pH-7.4@room temperature.
(§3) All receptor biding assays were performed in the same manner. The final assay volume was 250 μl and contained from 10-40 μg of extract protein depending on receptor being assayed along with 5 nM of [^3H] all-trans retinoic acid or 10 nM [^3H] 9-cis retinoic acid and varying concentrations of competing ligand at concentrations that ranged from 0-10^−5 M. The assays were formatted for a 96 well minitube system. Incubations were carried out at 4° C. until equilibrium was achieved. Non-specific binding was defined as that binding remaining in the presence of 1000 nM of the appropriate unlabeled retinoic acid isomer. At the end of the incubation period, 50 μl of 6.25% hydroxyapitite was added in the appropriate wash buffer. The wash buffer consisted of 100 mM KCl, 10 mM Tris and either 5 mM CHAPS (RXR α, β, Γ) or 0.5% Triton X-100 (RAR α, β, Γ). The mixture was vortexed and incubated for 10 minutes at 4° C., centrifuged and the supernatant removed. The hydroxyapitite was washed three more times with the appropriate wash buffer. The receptor-ligand complex was adsorbed by the hydroxyapitite. The amount of receptor-ligand complex was determined by liquid scintillation counting of hydroxyapitite pellet.
(§4) After correcting for non-specific binding, IC50 values were determined. […] The IC50 value was determined graphically from a loglogit plot of the data. The […] were determined by application of the Cheng-Prussof equation to the IC50 values, the labeled ligand concentration and the Kd of the labeled ligand.
(§5) The results of ligand binding assay are expressed in Kd numbers. (See Chena et al. Biochemical Pharmacology Vol. 22 pp 3099-3108, expressly incorporated herein by reference.)

The target in the next assay is T2, RXRβ (UniProt P28704).
T2 construct: All six receptor types were derived from the expressed receptor type (RAR α, β, Γ and RXR α, β, Γ) expressed in Baculovirus
T2 sequence (P28704 1-520): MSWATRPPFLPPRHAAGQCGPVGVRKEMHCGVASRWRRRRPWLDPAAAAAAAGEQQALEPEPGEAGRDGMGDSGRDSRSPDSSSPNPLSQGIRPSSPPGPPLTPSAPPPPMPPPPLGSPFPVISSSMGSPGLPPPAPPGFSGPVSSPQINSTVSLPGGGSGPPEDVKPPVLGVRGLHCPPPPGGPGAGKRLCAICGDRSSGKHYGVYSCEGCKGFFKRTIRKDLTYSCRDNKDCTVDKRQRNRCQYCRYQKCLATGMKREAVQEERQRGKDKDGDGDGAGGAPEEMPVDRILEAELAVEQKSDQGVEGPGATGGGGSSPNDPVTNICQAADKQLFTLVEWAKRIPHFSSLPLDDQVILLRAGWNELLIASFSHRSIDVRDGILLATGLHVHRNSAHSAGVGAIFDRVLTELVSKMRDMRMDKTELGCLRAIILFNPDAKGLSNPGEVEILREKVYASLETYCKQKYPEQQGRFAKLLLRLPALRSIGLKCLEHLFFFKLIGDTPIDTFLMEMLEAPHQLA
Description: Ligand binding assay, RXRβ. As to conditions: receptor expressed in Baculovirus; Cheng-Prussof from IC50. Here is the method: (§6) A description of the ligand binding assay is also provided below.
as §2
as §3, with “At the end of the incubation period, 50 μl of 6.25% hydroxyapitite was added in the appropriate wash buffer.” left out
as §4
(§7) The results of ligand binding assay are expressed in Kd numbers.

For another assay, the target named is T3, RXRΓ (UniProt P28705).
T3 construct: All six receptor types were derived from the expressed receptor type (RAR α, β, Γ and RXR α, β, Γ) expressed in Baculovirus
T3 sequence (P28705 1-463): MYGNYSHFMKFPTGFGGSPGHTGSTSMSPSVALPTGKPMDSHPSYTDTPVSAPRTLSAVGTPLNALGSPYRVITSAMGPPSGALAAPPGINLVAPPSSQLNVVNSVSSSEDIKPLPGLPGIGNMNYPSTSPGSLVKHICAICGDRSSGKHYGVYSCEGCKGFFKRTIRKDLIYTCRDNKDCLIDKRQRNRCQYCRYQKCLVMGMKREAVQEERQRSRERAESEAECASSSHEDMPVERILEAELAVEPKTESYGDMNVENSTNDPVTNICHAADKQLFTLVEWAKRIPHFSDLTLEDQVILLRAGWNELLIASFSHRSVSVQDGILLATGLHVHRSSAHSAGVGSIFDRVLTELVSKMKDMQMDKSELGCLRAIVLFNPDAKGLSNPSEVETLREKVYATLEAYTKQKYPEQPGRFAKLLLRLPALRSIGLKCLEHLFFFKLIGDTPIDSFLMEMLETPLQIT
Description: Ligand binding assay, RXRΓ. The settings on record: receptor expressed in Baculovirus; Cheng-Prussof from IC50. Here is the method: as §6, §2
as §3, with “At the end of the incubation period, 50 μl of 6.25% hydroxyapitite was added in the appropriate wash buffer.” left out
as §4, §7

The next assay addresses T4, RARα (Homo sapiens, UniProt P10276).
T4 construct: made in house; used as extract protein
T4 sequence (P10276 1-462): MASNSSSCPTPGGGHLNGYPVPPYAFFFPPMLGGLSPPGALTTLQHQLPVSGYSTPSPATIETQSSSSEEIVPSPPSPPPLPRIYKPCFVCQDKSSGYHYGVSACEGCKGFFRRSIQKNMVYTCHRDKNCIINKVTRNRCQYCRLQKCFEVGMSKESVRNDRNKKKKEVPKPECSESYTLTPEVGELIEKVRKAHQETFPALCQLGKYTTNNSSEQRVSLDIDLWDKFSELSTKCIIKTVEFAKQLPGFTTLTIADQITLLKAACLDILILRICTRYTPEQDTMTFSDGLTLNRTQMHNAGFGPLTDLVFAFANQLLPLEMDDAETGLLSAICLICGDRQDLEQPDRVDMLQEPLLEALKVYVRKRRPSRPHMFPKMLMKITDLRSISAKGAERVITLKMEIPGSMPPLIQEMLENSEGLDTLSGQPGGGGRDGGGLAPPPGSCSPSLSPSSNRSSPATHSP
Description: Ligand binding assay, RARα. The settings on record: receptor expressed in Baculovirus; [3H] all-trans retinoic acid; Cheng-Prussof from IC50. Here is the method: as §1, §2, §3, §4, §5

The next assay concerns the target T5, RARβ (Homo sapiens, UniProt P10826).
T5 construct: made in house; used as extract protein
T5 sequence (P10826 1-455): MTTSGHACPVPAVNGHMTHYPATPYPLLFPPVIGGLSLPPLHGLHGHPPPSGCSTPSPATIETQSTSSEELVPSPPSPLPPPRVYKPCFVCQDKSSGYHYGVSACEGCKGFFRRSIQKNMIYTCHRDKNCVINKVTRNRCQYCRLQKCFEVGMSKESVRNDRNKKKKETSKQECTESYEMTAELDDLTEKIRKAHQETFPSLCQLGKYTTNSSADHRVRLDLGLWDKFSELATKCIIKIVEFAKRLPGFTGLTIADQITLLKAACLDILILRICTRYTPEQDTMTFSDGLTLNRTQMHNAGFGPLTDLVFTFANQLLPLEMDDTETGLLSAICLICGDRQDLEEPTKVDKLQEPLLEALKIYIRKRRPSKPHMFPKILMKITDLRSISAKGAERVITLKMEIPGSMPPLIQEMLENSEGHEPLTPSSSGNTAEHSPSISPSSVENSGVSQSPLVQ
Description: Ligand binding assay, RARβ. The settings on record: receptor expressed in Baculovirus; Cheng-Prussof from IC50. Here is the method: as §1, §2
as §3, with “The wash buffer consisted of 100 mM KCl, 10 mM Tris and either 5 mM CHAPS (RXR α, β, Γ) or 0.5% Triton X-100 (RAR α, β, Γ). The mixture was vortexed and incubated for 10 minutes at 4° C., centrifuged and the supernatant removed. The hydroxyapitite was washed three more times with the appropriate wash buffer. The receptor-ligand complex was adsorbed by the hydroxyapitite.” left out
(§8) After correcting for non-specific binding, IC50 values were determined. […] The IC50 value was determined graphically from a loglogit plot of the data. The […] were determined by application of the Cheng-Prussof equation to the IC50 values, the labeled ligand concentration and the Kd of the labeled ligand. […]

Another assay deals with T6, RARΓ (Homo sapiens, UniProt P13631).
T6 construct: made in house; used as extract protein
T6 sequence (P13631 1-454): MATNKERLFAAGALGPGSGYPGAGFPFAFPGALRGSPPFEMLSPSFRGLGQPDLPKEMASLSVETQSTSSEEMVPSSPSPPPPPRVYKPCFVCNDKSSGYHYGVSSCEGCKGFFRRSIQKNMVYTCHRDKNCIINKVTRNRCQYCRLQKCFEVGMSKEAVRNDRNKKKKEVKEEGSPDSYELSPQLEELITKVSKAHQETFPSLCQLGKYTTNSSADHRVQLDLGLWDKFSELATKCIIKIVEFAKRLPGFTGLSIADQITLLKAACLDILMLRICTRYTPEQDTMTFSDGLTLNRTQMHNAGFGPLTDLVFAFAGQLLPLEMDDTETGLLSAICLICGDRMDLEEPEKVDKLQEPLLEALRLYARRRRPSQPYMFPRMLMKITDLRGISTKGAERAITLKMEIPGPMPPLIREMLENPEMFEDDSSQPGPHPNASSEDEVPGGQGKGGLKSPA
Description: Ligand binding assay, RARΓ. As to conditions: receptor expressed in Baculovirus; Cheng-Prussof from IC50. Here is the method:
as §1, §2
as §3, with “The wash buffer consisted of 100 mM KCl, 10 mM Tris and either 5 mM CHAPS (RXR α, β, Γ) or 0.5% Triton X-100 (RAR α, β, Γ). The mixture was vortexed and incubated for 10 minutes at 4° C., centrifuged and the supernatant removed. The hydroxyapitite was washed three more times with the appropriate wash buffer. The receptor-ligand complex was adsorbed by the hydroxyapitite.” left out
as §8

pKd: −log10 of the molar value. Bounds are passed on as bounds.

Broadly, the pKd is the Kd on a negative log10 scale, so that one unit is a factor of ten. In the case of “2-Fluoro-4-[(3′,5′-di-t-butyl)phenylcarbamoyl]benzoic Acid [Compound 6]”, the pKd on RXRα, on RXRβ and on RXRΓ was less than 6.00 throughout.

On to `CC(C)(C)c1cc(C(=O)Nc2ccc(C(=O)O)cc2)cc(C(C)(C)C)n1` [Compound 4], for which the pKd was 7.72 on RARα; less than 6.00 on RARβ; less than 6.00 on RARΓ; less than 6.00 on RXRα; less than 6.00 on RXRβ; less than 6.00 on RXRΓ.

Regarding `CC(C)(C)c1cc(C(=O)Nc2ccc(C(=O)O)c(F)c2)c(O)c(C(C)(C)C)c1` [Compound 8], the pKd at RARα was 7.11; on RARβ it was less than 6.00; at RARΓ, less than 6.00; on RXRα, less than 6.00; on RXRβ, less than 6.00; on RXRΓ, less than 6.00.

Regarding `CC(C)(C)c1cc(C(=O)Nc2cc(F)c(C(=O)O)c(F)c2)cc(C(C)(C)C)n1` [Compound 10], the pKd at RARα is 7.21; at RXRβ, less than 6.00; on RXRΓ it was less than 6.00.

For `CC(C)(C)c1cc(C(=O)Nc2cc(F)c(C(=O)O)c(F)c2)cc(C(C)(C)C)c1` [Compound 12], the figures for the pKd at RARα, at RXRβ and on RXRΓ were 7.06, less than 6.00 and less than 6.00, respectively.

For the molecule `CC(C)(C)c1cc(C(=O)Nc2ccc(C(=O)O)c([N+](=O)[O-])c2)cc(C(C)(C)C)n1` [Compound 14], the negative-log Kd (pKd) at RARα was 7.03; at RXRβ it was less than 6.00; at RXRΓ it was less than 6.00.

With `CC(C)(C)c1cc(C(=O)Nc2ccc(C(=O)O)cc2)cc(C(C)(C)C)c1` [Compound 15, reference compound], the pKd on RARα was 7.43; at RARβ, less than 6.00; on RARΓ, less than 6.00; at RXRα it was less than 6.00; at RXRβ it was less than 6.00; on RXRΓ it was less than 6.00.
